Experiment [1] relates to L1210 (mouse leukemia cells). Briefly: In-vitro cytotoxicity, MTT assay (Example 1). In kind it is cell-based. Particulars: L1210, 120 h, Table I, four to five days in the presence of drugs. The procedure:
(§1) The conventional evaluation method proposed by the American National Cancer Institute was used. The method measures effectiveness of an anti-cancer drug based on IC50 which symbolizes the drug concentration in μM at which the drug achieves the inhibition of proliferation of a given line of cancer cells by a factor of one half when compared to the normal proliferation of the same line of cancer cells in the same growth media
(§2) CAU were tested on several cell lines including human non-hormone-dependant breast cancer cells (MDA-MB-231), and mouse leukemia (L1210). MDA-MB-231. These cell lines were obtained from the American Type Culture Collection (Bethesda, Md., USA). Cytotoxicity of CAU derivatives was tested and compared to the effect of chlorambucil and carmustine.
(§3) Tumor cells were grown in RPMI-1640 medium supplemented with 10% fetal calf serum, 2 mM glutamine and 64 U/mL of gentamycin. Cells were routinely passaged at 90% confluence.
(§4) Five thousand cells (100 μl) were seeded in 96 well's plate and incubated for one day at 37° C. under a humidified atmosphere, in presence of 5% CO2. […]
(§5) Cell's survival was evaluated by colorimetric assay using MTT, according to a modification of the procedure reported by Carmichael and coil. […] The plates were then shaken for 15 minutes and the absorbance read at 570 nm with a Behring Elisa Procesor II (Behring, Marburg, Germany). […]
A general note: Tetrazolium assays rely on reduction of a dye to a coloured formazan, in cell work by metabolically active cells.

Experiment [2] concerns MDA-MB-231 (human breast cancer cells). Briefly: In-vitro cytotoxicity, MTT assay (Example 1). The class given is cell-based. Particulars: MDA-MB-231, 120 h, Table I, four to five days in the presence of drugs. The procedure:
as §1, §2, §3, §4, §5

The next experiment relates to T24. The experiment can be described thus: Cytotoxicity assay G50, MTT or resazurin (Example 29). Particulars: Homo sapiens, T-24; cell line T24. In kind it is cell-based. The procedure: (§6) The MTT assay was as described above in Example 1. The Resazurin assay was performed as follows:
(§7) Aspirate the supernatant (cell suspension: centrifuge first)
(§8) Add 100 μL NaCl 0.9% (saline)
(§9) Add 50 μL RZ (resazurin 125 μg/ml/PBS: RPMI without FBS; 1:4)
(§10) Collect fluorescence data at different time.
For orientation: Resazurin is reduced to fluorescent resorufin, in cell work by metabolically active cells.

Another experiment has as its system L1210. The experiment is described as above. The class given is cell-based. Particulars: Mus musculus; cell line L1210. The procedure:
as §6, §7, §8, §9, §10

For another experiment, the system named is MCF-7. Described as above. Particulars: Homo sapiens, MCF7; cell line MCF-7. In kind it is cell-based. Here is the method:
as §6, §7, §8, §9, §10

A further experiment has as its system K562. The description is as above. In kind it is cell-based. Particulars: Homo sapiens; cell line K562. Here is the method: as §6, §7, §8, §9, §10
In another experiment the test system is HT-29. The description is as above. Particulars: Homo sapiens; cell line HT-29. The class given is cell-based. The procedure: (§11) Cell culture. Tumor cell lines (B16-F0, Caco-2, DU-145, HT-29, MDA-MB-231 and other cell lines described so far in the patent application) were obtained from the American Type Culture Collection (ATCC HTB-26; Bethesda, Md.). Cells were grown in RPMI 1640 medium supplemented with 10% fetal bovine serum (Hyclone, Road Logan, Utah) and were cultured in a humidified atmosphere at 37° C. in 5% CO2.
(§12) Drugs: All drugs were dissolved in DMSO and the final concentration of DMSO in the culture medium was maintained at 0.5% (v/v).
(§13) Cytotoxiciy assays. At day-1, tumor cells in suspension in 100 μl were plated in microtiter plates (96 wells). On day-0, tumor cells were treated by addition of escalating concentrations of the drug (100 μl solution). On that day, the number of living cells was determined in wells that were untreated. The number of living cells is determined using either MTT or resazurin assays. Growth inhibition activity of these compounds was expressed as the concentration of CAU inhibiting cell growth by 50% G50 in the following table
as §6, §7, §8, §9, §10

For the next experiment, the system named is Caco-2. The description is as above. In kind it is cell-based. Particulars: Homo sapiens; cell line Caco-2. The procedure:
as §11, §12, §13, §6, §7, §8, §9, §10

The test system of a further experiment is MDA-MB-231. The description is as above. The class given is cell-based. Particulars: Homo sapiens; cell line MDA-MB-231. The procedure:
as §11, §12, §13, §6, §7, §8, §9, §10

The next experiment relates to B16-F0. The experiment is described as above. The class given is cell-based. Particulars: Mus musculus, B16F0; cell line B16-F0. The procedure: as §11, §12, §13, §6, §7, §8, §9, §10
The test system of the next experiment is DU-145. The description is as above. The class given is cell-based. Particulars: Homo sapiens; cell line DU-145. The procedure: as §11, §12, §13, §6, §7, §8, §9, §10
The subject of the next experiment is CHO. The description is as above. Particulars: Cricetulus griseus; cell line CHO. In kind it is cell-based, Chinese Hamster. Here is the method:
as §6, §7, §8, §9, §10

Some results are limits rather than exact numbers.

Consider `O=NN(CCCl)C(=O)NCCCl` [Carmustine, carmustine], for which the concentration for half-maximal inhibition (IC50) (commonly the concentration that inhibits the measured activity by half) in [1] came out at 4.5 µM; in experiment [2], 6.8 µM.
On to `CC[C@@H](CCl)NC(=O)Nc1ccc(OC)c(OC)c1` [Example 19], for which the IC50 in the experiment with T24, in the experiment with L1210, in the experiment on MCF-7, in the experiment on K562, in the experiment on HT-29 and in the experiment on Caco-2 was greater than 100 µM throughout. Further, the IC50 in the experiment with MDA-MB-231, in the experiment on B16-F0, with DU-145 and in the experiment on CHO was greater than 100 µM each time.
In the case of `CC[C@H](CCl)NC(=O)Nc1ccc(OC)c(OC)c1` [Example 20], the IC50 with T24, in the experiment on L1210, with MCF-7, in the experiment with K562, in the experiment with HT-29 and with Caco-2 was greater than 100 µM each time. In addition, the half-inhibitory concentration (IC50) with MDA-MB-231, in the experiment on B16-F0, in the experiment with DU-145 and with CHO was greater than 100 µM throughout.
For `CCCCCCCc1ccc(NC(=O)N[C@H](C)CCl)cc1` [Example 21], the 50% inhibitory concentration (IC50) worked out at 2.18 µM in the experiment with T24; 2.42 µM in the experiment with L1210; 3.31 µM in the experiment on MCF-7; 2.41 µM in the experiment with K562; 2.17 µM in the experiment with HT-29; 4.94 µM with Caco-2. Further, the IC50 in the experiment on MDA-MB-231 is 4.64 µM; in the experiment on B16-F0 it was 3.79 µM; with DU-145, 3.63 µM; in the experiment on CHO, 3.46 µM.
Regarding `CCCCCCCc1ccc(NC(=O)N[C@@H](C)CCl)cc1` [Example 22], the IC50 in the experiment with T24 is 6.15 µM; in the experiment with L1210, 7.48 µM; with MCF-7, 5.56 µM; in the experiment with K562, 6.96 µM; with HT-29, 7.69 µM; with Caco-2, 7.61 µM. Moreover, the IC50 with MDA-MB-231 was 8.33 µM; in the experiment with B16-F0 it was 6.6 µM; in the experiment with DU-145, 7.46 µM; in the experiment with CHO, 3.8 µM.
As to `CCCCCCCc1ccc(NC(=O)N[C@@H](CC)CCl)cc1` [Example 23], the IC50 was determined as 3.93 µM in the experiment on T24; 5.67 µM in the experiment on L1210; 4.2 µM in the experiment with MCF-7; 3.59 µM in the experiment with K562; 5.01 µM in the experiment on HT-29; 6.32 µM in the experiment with Caco-2. The IC50 was 6.12 µM with MDA-MB-231, 4.77 µM in the experiment on B16-F0, 4.89 µM with DU-145 and 4.2 µM in the experiment with CHO.
Consider `CCCCCCCc1ccc(NC(=O)N[C@H](CC)CCl)cc1` [Example 24], for which the IC50 in the experiment with T24 is 3.61 µM; in the experiment on L1210 it was 4.04 µM; with MCF-7 it was 3.78 µM; in the experiment on K562, 2.9 µM; in the experiment on HT-29 it was 2.94 µM; with Caco-2, 4.85 µM. Besides, the IC50 in the experiment with MDA-MB-231 stood at 5.17 µM; with B16-F0 it was 3.74 µM; in the experiment on DU-145, 4.02 µM; in the experiment on CHO, 3.14 µM.
Consider `CCCCCCOc1ccc(NC(=O)N[C@H](C)CCl)cc1` [Example 26], for which the half-inhibitory concentration (IC50) was determined as 7.14 µM in the experiment with T24; 6.21 µM in the experiment on L1210; 8.3 µM in the experiment on MCF-7; 2.68 µM with K562; 9.55 µM with HT-29; 8.57 µM in the experiment on Caco-2. Further, the 50% inhibitory concentration (IC50) came out at 10.5 µM in the experiment on MDA-MB-231, 6.38 µM in the experiment on B16-F0, 13.2 µM with DU-145 and 2.63 µM in the experiment with CHO.
As for `CCCCCCOc1ccc(NC(=O)N[C@@H](C)CCl)cc1` [Example 27], the IC50 with T24 stood at 9.93 µM; in the experiment with L1210, 8.2 µM; with MCF-7, 7.99 µM; in the experiment with K562, 7.48 µM; in the experiment with HT-29, 10.5 µM; with Caco-2, 7.98 µM. Moreover, the concentration for half-maximal inhibition (IC50) in the experiment on MDA-MB-231 worked out at 9.08 µM; with B16-F0 it was 8.45 µM; in the experiment on DU-145, 12.6 µM; in the experiment with CHO, 3.66 µM.
For `CCCCCCOc1ccc(NC(=O)N[C@@H](CC)CCl)cc1` [Example 28], the half-maximal inhibitory concentration (IC50) in the experiment with T24 worked out at 7.16 µM; in the experiment with L1210, 7.42 µM; with MCF-7 it was 10.4 µM; in the experiment on K562 it was 3.88 µM; with HT-29, 8.12 µM; in the experiment on Caco-2, 9.5 µM. Also, the IC50 with MDA-MB-231 is 8.75 µM; in the experiment on B16-F0, 8.26 µM; in the experiment with DU-145 it was 9.46 µM; in the experiment on CHO, 3.28 µM.
